Reference: the NIST ThermoML archive (doi:10.1016/j.jct.2013.03.001)
Numbers after ± are expanded uncertainties.

Legend:
[1] = molar enthalpy of vaporization or sublimation; details: 298.15 K; Crystal; Static calorimetry
[2] = Molar enthalpy of transition or fusion; details: Crystal; DSC
[3] = Crystal; DTA

O=c1cccc(Cl)[nH]1 [2(1H)-pyridinone, 6-chloro-]
molar enthalpy [1]: 91.7 ± 1.3 kJ/mol
Molar enthalpy of transition or fusion [2]: 18.4 ± 0.47 kJ/mol
Normal melting temperature [3]: 128.46 ± 0.39 °C

Oc1cccnc1Cl [2-chloro-3-hydroxypyridine]
molar enthalpy [1]: 89.2 ± 1.8 kJ/mol
Molar enthalpy of transition or fusion [2]: 26.8 ± 0.62 kJ/mol
Normal melting temperature [3]: 169.99 ± 0.41 °C

Oc1cncc(Cl)c1 [3-chloro-5-hydroxypyridine]
molar enthalpy [1]: 99.5 ± 2 kJ/mol
Molar enthalpy of transition or fusion [2]: 21.6 ± 0.58 kJ/mol
Normal melting temperature [3]: 159.76 ± 0.41 °C
